# Measured values: patent US8247211B2, “Glycopeptide antibiotics” (American Cyanamid Company, priority 2001, dated 2012)
# Tests used:
# Experiment in all cases: In vitro antibacterial evaluation: minimum inhibitory concentration (MIC), broth dilution method
# Format in all cases: cell-based
# Settings in all cases: 18 hours at 35° C.
# [1] = system: Enterococcus sp.
# How it was run: (§1)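 Values are minimum inhibitory concentrations, meaning the smallest antibiotic concentration that stops growth of the organism. They come from broth dilution in Muller-Hinton II […] per NCCLS guidance (M7-A2), using 5×10^5 CFU/mL and concentrations from 64 to 0.06 μg/mL.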
# [2] = system: Staphylococcus sp.
# How it was run: as §1
# [3] = system: Escherichia coli
# How it was run: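 Test strains, among them recent clinical isolates carrying methicillin, penicillin and/or vancomycin resistance, were inoculated at 5×10^5 CFU/mL. A broth dilution series spanning 64-0.06 μg/mL in Muller-Hinton II […] (NCCLS M7-A2) defined the MIC as the lowest growth-inhibiting concentration.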
# [4] = system: Streptococcus sp.
# How it was run: as §1
# [5] = Enterococcus faecalis (ATCC 29212)
# [6] = Enterococcus faecalis (GC 2242)
# [7] = Enterococcus faecalis (GC 4552)
# [8] = Enterococcus faecalis (GC 4553)
# [9] = Enterococcus faecalis (GC 4554)
# [10] = Coagulase Negative Staphylococcus (GC 4547)
# [11] = Coagulase Negative Staphylococcus (GC 4548)
# [12] = Coagulase Negative Staphylococcus (GC 4549)
# [13] = Coagulase Negative Staphylococcus (GC 4551)
# [14] = Staphylococcus aureus (ATCC 29213)
# [15] = Staphylococcus aureus (GC 1131)
# [16] = Staphylococcus aureus (GC 4541)
# [17] = Staphylococcus aureus (GC 4542)
# [18] = Staphylococcus aureus (GC 4544)
# [19] = Staphylococcus aureus (GC 4545)
# [20] = Staphylococcus aureus-SMITH (GC 4543)
# [21] = Staphylococcus haemolyticus (GC 4546)
# [22] = Streptococcus agalactiae (GC 4564)
# [23] = Streptococcus pneumoniae (GC 4565)
substance,measurement,setting,value
"Tri-N-[(phenylmethoxy)carbonyl]-cyclo[glycyl-β-methylphenylalanyltyrosyl-3-(2-iminoimidazolidin-4-yl)seryl-3-β-(2,3:4,6-di-O-isopropylidenehexopyranosyl)-2-iminoimidazolidin-4-yl]seryl-O-(tert-butyldimethylsilyl)seryl] [Example 249]",MIC Enterococcus avium (GC 4558),[1]; Enterococcus avium (GC 4558),32 µg/mL
same,MIC Enterococcus faecalis (ATCC 29212),[1]; [5],16 µg/mL
same,MIC Enterococcus faecalis (GC 2242),[1]; [6],32 µg/mL
same,MIC Enterococcus faecalis (GC 2691),[1]; Enterococcus faecalis (GC 2691),128 µg/mL
same,MIC Enterococcus faecalis (GC 3059),[1]; Enterococcus faecalis (GC 3059),128 µg/mL
same,MIC Enterococcus faecalis (GC 4552),[1]; [7],64 µg/mL
same,MIC Enterococcus faecalis (GC 4553),[1]; [8],64 µg/mL
same,MIC Enterococcus faecalis (GC 4554),[1]; [9],128 µg/mL
same,MIC Enterococcus faecalis (GC 6189),[1]; Enterococcus faecalis (GC 6189),64 µg/mL
same,MIC Enterococcus faecium (GC 2243),[1]; Enterococcus faecium (GC 2243),64 µg/mL
same,MIC Enterococcus faecium (GC 4556),[1]; Enterococcus faecium (GC 4556),32 µg/mL
same,MIC Enterococcus faecium (GC 4557),[1]; Enterococcus faecium (GC 4557),64 µg/mL
same,MIC Enterococcus faecalis (ATCC 29212),"[1]; broth dilution, strain ATCC 29212",16 µg/mL
same,MIC Enterococcus faecalis (GC 2242),"[1]; broth dilution, strain GC 2242",32 µg/mL
same,MIC Enterococcus faecium (GC 2243),"[1]; broth dilution, strain GC 2243",64 µg/mL
same,MIC Enterococcus faecalis (GC 2691),"[1]; broth dilution, strain GC 2691",128 µg/mL
same,MIC Enterococcus faecalis (GC 3059),"[1]; broth dilution, strain GC 3059",128 µg/mL
same,MIC Enterococcus faecalis (GC 4552),"[1]; broth dilution, strain GC 4552",64 µg/mL
same,MIC Enterococcus faecalis (GC 4553),"[1]; broth dilution, strain GC 4553",64 µg/mL
same,MIC Enterococcus faecalis (GC 4554),"[1]; broth dilution, strain GC 4554",128 µg/mL
same,MIC Enterococcus faecium (GC 4556),"[1]; broth dilution, strain GC 4556",32 µg/mL
same,MIC Enterococcus faecium (GC 4557),"[1]; broth dilution, strain GC 4557",64 µg/mL
same,MIC Enterococcus avium (GC 4558),"[1]; broth dilution, strain GC 4558",32 µg/mL
same,MIC Enterococcus faecalis (GC 6189),"[1]; broth dilution, strain GC 6189",64 µg/mL
same,MIC Coagulase Negative Staphylococcus (GC 4547),[2]; [10],64 µg/mL
same,MIC Coagulase Negative Staphylococcus (GC 4548),[2]; [11],128 µg/mL
same,MIC Coagulase Negative Staphylococcus (GC 4549),[2]; [12],128 µg/mL
same,MIC Coagulase Negative Staphylococcus (GC 4551),[2]; [13],64 µg/mL
same,MIC Coagulase Negative Staphylococcus (GC 6257),[2]; Coagulase Negative Staphylococcus (GC 6257),128 µg/mL
same,MIC Staphylococcus aureus (ATCC 29213),[2]; [14],128 µg/mL
same,MIC Staphylococcus aureus (GC 1131),[2]; [15],128 µg/mL
same,MIC Staphylococcus aureus (GC 3051),[2]; Staphylococcus aureus (GC 3051),128 µg/mL
same,MIC Staphylococcus aureus (GC 3053),[2]; Staphylococcus aureus (GC 3053),128 µg/mL
same,MIC Staphylococcus aureus (GC 4541),[2]; [16],128 µg/mL
same,MIC Staphylococcus aureus (GC 4542),[2]; [17],64 µg/mL
same,MIC Staphylococcus aureus (GC 4544),[2]; [18],64 µg/mL
same,MIC Staphylococcus aureus (GC 4545),[2]; [19],128 µg/mL
same,MIC Staphylococcus aureus-SMITH (GC 4543),[2]; [20],128 µg/mL
same,MIC Staphylococcus haemolyticus (GC 4546),[2]; [21],128 µg/mL
same,MIC Staphylococcus aureus (ATCC 29213),"[2]; broth dilution, strain ATCC 29213",128 µg/mL
same,MIC Staphylococcus aureus (GC 1131),"[2]; broth dilution, strain GC 1131",128 µg/mL
same,MIC Staphylococcus aureus (GC 3051),"[2]; broth dilution, strain GC 3051",128 µg/mL
same,MIC Staphylococcus aureus (GC 3053),"[2]; broth dilution, strain GC 3053",128 µg/mL
same,MIC Staphylococcus aureus (GC 4541),"[2]; broth dilution, strain GC 4541",128 µg/mL
same,MIC Staphylococcus aureus (GC 4542),"[2]; broth dilution, strain GC 4542",64 µg/mL
same,MIC Staphylococcus aureus-SMITH (GC 4543),"[2]; broth dilution, strain GC 4543",128 µg/mL
same,MIC Staphylococcus aureus (GC 4544),"[2]; broth dilution, strain GC 4544",64 µg/mL
same,MIC Staphylococcus aureus (GC 4545),"[2]; broth dilution, strain GC 4545",128 µg/mL
same,MIC Staphylococcus haemolyticus (GC 4546),"[2]; broth dilution, strain GC 4546",128 µg/mL
same,MIC Coagulase Negative Staphylococcus (GC 4547),"[2]; broth dilution, strain GC 4547",64 µg/mL
same,MIC Coagulase Negative Staphylococcus (GC 4548),"[2]; broth dilution, strain GC 4548",128 µg/mL
same,MIC Coagulase Negative Staphylococcus (GC 4549),"[2]; broth dilution, strain GC 4549",128 µg/mL
same,MIC Coagulase Negative Staphylococcus (GC 4551),"[2]; broth dilution, strain GC 4551",64 µg/mL
same,MIC Coagulase Negative Staphylococcus (GC 6257),"[2]; broth dilution, strain GC 6257",128 µg/mL
same,MIC Escherichia coli (ATCC 25922),[3],128 µg/mL
same,MIC Escherichia coli (GC 4559),[3]; Escherichia coli (GC 4559),128 µg/mL
same,MIC Escherichia coli (GC 4560),[3]; Escherichia coli (GC 4560),128 µg/mL
same,MIC Streptococcus agalactiae (GC 4564),[4]; [22],128 µg/mL
same,MIC Streptococcus pneumoniae (ATCC 6301),[4]; Streptococcus pneumoniae (ATCC 6301),64 µg/mL
same,MIC Streptococcus pneumoniae (GC 1894),[4]; Streptococcus pneumoniae (GC 1894),32 µg/mL
same,MIC Streptococcus pneumoniae (GC 4565),[4]; [23],64 µg/mL
same,MIC Streptococcus pyogenes (GC 4563),[4]; Streptococcus pyogenes (GC 4563),128 µg/mL
same,MIC Streptococcus pneumoniae (ATCC 6301),"[4]; broth dilution, strain ATCC 6301",64 µg/mL
same,MIC Streptococcus pneumoniae (GC 1894),"[4]; broth dilution, strain GC 1894",32 µg/mL
same,MIC Streptococcus pyogenes (GC 4563),"[4]; broth dilution, strain GC 4563",128 µg/mL
same,MIC Streptococcus agalactiae (GC 4564),"[4]; broth dilution, strain GC 4564",128 µg/mL
same,MIC Streptococcus pneumoniae (GC 4565),"[4]; broth dilution, strain GC 4565",64 µg/mL
α-O-[(Butylamino)carbonyl]-cyclo[glycyl-β-methylphenylalanyl-O-(4-O-hexopyranosylhexopyranosyl)tyrosyl-3-(2-iminoimidazolidin-4-yl)seryl-3-(3-hexopyranosyl-2-iminoimidazolidin-4-yl)serylseryl] [Example 252],MIC Enterococcus avium (GC 4558),[1]; Enterococcus avium (GC 4558),>64 µg/mL
same,MIC Enterococcus faecalis (ATCC 29212),[1]; [5],>64 µg/mL
same,MIC Enterococcus faecalis (GC 2242),[1]; [6],>64 µg/mL
same,MIC Enterococcus faecalis (GC 4552),[1]; [7],>64 µg/mL
same,MIC Enterococcus faecalis (GC 4553),[1]; [8],>64 µg/mL
same,MIC Enterococcus faecalis (GC 4554),[1]; [9],>64 µg/mL
same,MIC Enterococcus faecium (GC 2243),[1]; Enterococcus faecium (GC 2243),>64 µg/mL
same,MIC Enterococcus faecium (GC 4556),[1]; Enterococcus faecium (GC 4556),>64 µg/mL
same,MIC Enterococcus faecium (GC 4557),[1]; Enterococcus faecium (GC 4557),>64 µg/mL
same,MIC Coagulase Negative Staphylococcus (GC 4547),[2]; [10],>64 µg/mL
same,MIC Coagulase Negative Staphylococcus (GC 4548),[2]; [11],>64 µg/mL
same,MIC Coagulase Negative Staphylococcus (GC 4549),[2]; [12],>64 µg/mL
same,MIC Coagulase Negative Staphylococcus (GC 4551),[2]; [13],>64 µg/mL
same,MIC Coagulase Negative Staphylococcus (ID-3941),[2]; Coagulase Negative Staphylococcus (ID-3941),>64 µg/mL
same,MIC Staphylococcus aureus (ATCC 29213),[2]; [14],>64 µg/mL
same,MIC Staphylococcus aureus (GC 1131),[2]; [15],>64 µg/mL
same,MIC Staphylococcus aureus (GC 4541),[2]; [16],>64 µg/mL
same,MIC Staphylococcus aureus (GC 4542),[2]; [17],>64 µg/mL
same,MIC Staphylococcus aureus (GC 4544),[2]; [18],>64 µg/mL
same,MIC Staphylococcus aureus (GC 4545),[2]; [19],>64 µg/mL
same,MIC Staphylococcus aureus-SMITH (GC 4543),[2]; [20],>64 µg/mL
same,MIC Staphylococcus haemolyticus (GC 4546),[2]; [21],>64 µg/mL
same,MIC Escherichia coli (ATCC 25922),[3],>64 µg/mL
same,MIC Streptococcus agalactiae (GC 4564),[4]; [22],>64 µg/mL
same,MIC Streptococcus pneumoniae (GC 4565),[4]; [23],>64 µg/mL
same,MIC Streptococcus pyogenes (ID-3187),[4]; Streptococcus pyogenes (ID-3187),>64 µg/mL
